ChEMBL document CHEMBL4739717, “Methods of treating cartilage disorders through inhibition of clk and dyrk” (2020)

Legend:
[1] = Induction of chondrogenesis in human MSC assessed as maximum activity at 10 nM incubated for 6 days by rhodamine B and Nile red staining based imaging analysis relative to control; format: functional; details: BMMSC, 144 h, time 6 day
[2] = Effect on Wnt signaling pathway in human SW480 cells harbouring TCF/LEF luciferase reporter gene and SP5-Luc reporter gene incubated for 36 to 48 hrs by luminescence assay; format: cell-based
[3] = target: Dual specificity tyrosine-phosphorylation-regulated kinase 1A (Homo sapiens, UniProt Q13627); experiment: Inhibition of recombinant DYRK1A (unknown origin) using Ser/Thr 18 peptide as substrate incubated for 1 hr in presence of ATP by FRET assay
[4] = target: Dual specificity protein kinase CLK3 (Homo sapiens, UniProt P49761); experiment: Inhibition of recombinant CLK3 (unknown origin) using Ser/Thr 18 peptide as substrate incubated for 1 hr in presence of ATP by FRET assay
[5] = Induction of chondrogenesis in human MSC assessed as maximum activity at 30 nM incubated for 6 days by rhodamine B and Nile red staining based imaging analysis relative to control; format: functional; details: BMMSC, 144 h, time 6 day
[6] = Induction of chondrogenesis in human MSC assessed as incubated for 6 days by rhodamine B and Nile red staining based imaging analysis; format: functional; details: bmmsc
[7] = Inhibition of IL1-beta induced MMP3 expression levels in human chondrocytes assessed as MMP3 levels incubated for 2hrs followed by IL1-beta stimulation and measured after overnight incubation by LANCE assay; format: functional, cell-based; details: Chondrocyte
[8] = Induction of chondrogenesis in human MSC assessed as maximum activity at 300 nM incubated for 6 days by rhodamine B and Nile red staining based imaging analysis relative to control; format: functional; details: BMMSC, 144 h, time 6 day

Chain of Dual specificity protein kinase CLK3 (P49761 whole entry): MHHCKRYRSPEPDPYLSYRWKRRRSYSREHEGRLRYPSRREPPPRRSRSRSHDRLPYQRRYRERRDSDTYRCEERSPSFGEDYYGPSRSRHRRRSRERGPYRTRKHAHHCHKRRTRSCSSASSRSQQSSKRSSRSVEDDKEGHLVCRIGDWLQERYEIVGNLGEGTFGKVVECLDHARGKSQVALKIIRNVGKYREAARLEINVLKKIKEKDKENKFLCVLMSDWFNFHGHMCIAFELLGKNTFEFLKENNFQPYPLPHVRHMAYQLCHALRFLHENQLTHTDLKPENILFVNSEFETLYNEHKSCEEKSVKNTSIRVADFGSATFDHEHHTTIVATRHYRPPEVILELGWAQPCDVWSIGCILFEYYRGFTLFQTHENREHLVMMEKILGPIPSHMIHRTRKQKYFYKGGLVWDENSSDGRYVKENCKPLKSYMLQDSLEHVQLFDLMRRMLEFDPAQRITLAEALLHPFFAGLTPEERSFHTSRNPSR

Compound	EC50 [2]	EC50 [3]	EC50 [4]	EC50 [6]	EC50 [7]	Emax at 0.01 µM [1]	Emax at 0.03 µM [5]	Emax at 0.3 µM [8]
COc1cncc(C#Cc2c[nH]nc2C(=O)Nc2ccc(N3CCNCC3)nc2)c1	> 10000 nM	11 nM	> 10000 nM	–	–	74.7%	–	–
CC(C)N1CCC(c2nc(C(=O)Nc3cc4cc(-c5cnn(C)c5)ccc4cn3)co2)CC1	80 nM	–	20 nM	–	57.3 nM	–	–	–
CC(C)Nc1cncc(-c2cnc3[nH]nc(-c4cc5c(-c6ccccc6F)ccnc5[nH]4)c3c2)c1	> 10000 nM	35 nM	> 10000 nM	10 nM	–	81.6%	–	–
CN1CCN(c2ccnc3[nH]c(-c4n[nH]c5ccc(-c6cncc(NC(=O)c7ccccc7)c6)nc45)cc23)CC1	6100 nM	29 nM	258 nM	10 nM	–	61.8%	–	–
O=C(Nc1c[nH]nc1C(=O)Nc1ccc(N2CCC(F)(F)C2)nc1)c1cncc(OC2CCNCC2)c1	2220 nM	10 nM	–	–	280 nM	–	–	75.2%
O=C(Cc1ccccc1)Nc1cncc(-c2ccc3[nH]nc(-c4cc5cnccc5[nH]4)c3c2)c1	1760 nM	8 nM	180 nM	10 nM	–	119%	–	–
O=C(Nc1cc2cc(-c3cncs3)ccc2cn1)C1(F)CCCCC1	> 10000 nM	8 nM	> 10000 nM	–	3000 nM	–	–	–
O=C(Nc1cncc(-c2ccc3[nH]nc(-c4cc5c(-c6ccncc6)nccc5[nH]4)c3c2)c1)C1CCCC1	> 10000 nM	11 nM	–	30 nM	–	–	–	114%
Fc1ccc(-c2cccc3[nH]c(-c4n[nH]c5ncc(-c6cncc(CN7CCCCC7)c6)cc45)cc23)cc1	3660 nM	> 10000 nM	> 10000 nM	–	46.1 nM	–	–	–
CN(C)CCOc1cc(C(=O)Nc2cc3cc(-c4cnn(C)c4)ccc3cn2)ccn1	–	–	30 nM	–	1010 nM	–	–	–
O=C(Nc1cccnc1)c1n[nH]cc1C#Cc1cncc(OC2CCNCC2)c1	1270 nM	24 nM	> 10000 nM	–	0.2 nM	–	–	–
COc1ccc(NC(=O)c2n[nH]c3ccc(-c4cncc(CN5CCCCC5)c4)cc23)cn1	15 nM	1 nM	–	300 nM	–	–	–	138%
Nc1cncc(-c2cnc3[nH]nc(-c4cc5c(-c6ccncc6)ccnc5[nH]4)c3c2)c1	> 10000 nM	19 nM	> 10000 nM	–	–	–	–	–
O=C(Nc1ccc(OCCN2CCCC2)nc1)c1n[nH]cc1C#Cc1cccnc1	409 nM	24 nM	> 10000 nM	–	–	–	68.8%	–
CN(C)Cc1cncc(-c2ccc3[nH]nc(-c4cc5c(N6CCCCC6)cccc5[nH]4)c3c2)c1	575 nM	71 nM	–	10 nM	–	–	–	205%
O=C(Nc1ccnc(C(F)(F)F)c1)c1n[nH]c2ccc(-c3cncc(CN4CCCCC4)c3)cc12	36.4 nM	4 nM	–	100 nM	–	–	–	69%
CC(F)(F)CN1CCC(C(=O)Nc2cc3cc(-c4cnco4)cnc3cn2)CC1	> 10000 nM	–	> 10000 nM	–	3000 nM	–	–	–
Cc1n[nH]c2cc(F)c(-c3cncc(CN4CCCCC4)n3)cc12	2440 nM	60 nM	3380 nM	–	3000 nM	–	–	–
O=C(Nc1cncc(-c2cnc3[nH]nc(-c4cc5cccnc5[nH]4)c3c2)c1)c1ccccc1	> 10000 nM	14 nM	> 10000 nM	–	–	21.8%	–	–
O=C(Nc1cc2cc(-c3cnco3)cnc2cn1)[C@H]1CC[C@H](CO)CC1	> 10000 nM	–	> 10000 nM	–	–	–	–	–
CN(C)CCNc1cc(F)cc(-c2cccc3[nH]c(-c4n[nH]c5ncc(-c6ccncc6)cc45)cc23)c1	6070 nM	> 10000 nM	> 10000 nM	–	4 nM	–	–	–
CN1CC2CCC(C1)N2C(=O)Nc1cc2cc(-c3cnn(C)c3)ccc2cn1	> 10000 nM	–	> 10000 nM	–	–	–	–	–
Fc1ccc(-c2cncc3[nH]c(-c4n[nH]c5cnc(-c6cncc(CN7CCC(F)(F)C7)c6)cc45)cc23)cc1	3260 nM	30 nM	–	100 nM	–	–	–	78.4%
CN1CCN(c2cccc3[nH]c(-c4n[nH]c5ccc(-c6cncc(CN7CCCCC7)c6)cc45)cc23)CC1	4970 nM	35 nM	–	100 nM	–	–	–	198%
O=C(Nc1cccnc1)Nc1c[nH]nc1C(=O)Nc1ccc(C(F)(F)F)nc1	679 nM	22 nM	> 10000 nM	–	8.7 nM	–	–	–
CN1CCN(c2ccnc3[nH]c(-c4n[nH]c5cnc(-c6cncc(CNCC7CCCC7)c6)cc45)cc23)CC1	> 10000 nM	51 nM	–	300 nM	–	–	–	150%

Now from value to molecule, other results behind:

EC50 [2]	EC50 [3]	EC50 [4]	EC50 [6]	EC50 [7]	Compound	Emax at 0.01 µM [1]	Emax at 0.03 µM [5]	Emax at 0.3 µM [8]
> 10000 nM	14 nM	> 10000 nM	10 nM	–	CN(C)c1cncc(-c2cnc3[nH]nc(-c4cc5c(-c6ccncc6)cncc5[nH]4)c3c2)c1	–	191%	–
9.7 nM	> 10000 nM	> 10000 nM	–	298 nM	O=C(Nc1cncc(-c2cc3c(-c4cc5c(-c6cccc(F)c6)ccnc5[nH]4)n[nH]c3cn2)c1)C1CC1	–	–	–
> 10000 nM	> 10000 nM	> 10000 nM	–	3000 nM	Fc1cccc(-c2cncc3[nH]c(-c4n[nH]c5ccc(-c6cnccn6)nc45)nc23)c1	–	–	–
30.5 nM	63 nM	–	10 nM	–	Fc1ccccc1-c1nccc2[nH]c(-c3n[nH]c4cnc(-c5cn[nH]c5)cc34)cc12	–	–	89.2%
580 nM	3 nM	–	10 nM	–	O=C(Nc1cncc(-c2cc3c(-c4cc5cnccc5[nH]4)n[nH]c3cn2)c1)c1ccccc1	–	–	152%
> 10000 nM	> 10000 nM	> 10000 nM	–	3000 nM	Fc1ccc(-c2cccc3[nH]c(-c4n[nH]c5ccc(-c6cncnc6)nc45)nc23)cc1	–	–	–
> 10000 nM	7 nM	–	10 nM	–	Nc1cncc(-c2ccc3[nH]nc(-c4nc5c(-c6ccccc6F)cncc5[nH]4)c3n2)c1	–	–	98.2%
12.3 nM	50 nM	–	300 nM	–	Nc1cncc(-c2cnc3[nH]nc(-c4nc5c(-c6ccccc6F)ccnc5[nH]4)c3c2)c1	–	–	59.9%
43.5 nM	44 nM	–	30 nM	–	CC(C)Nc1cncc(-c2ccc3[nH]nc(-c4nc5c(-c6ccoc6)nccc5[nH]4)c3c2)c1	–	–	90.2%
> 10000 nM	16 nM	–	900 nM	–	CCC(=O)Nc1cncc(-c2ccc3[nH]nc(-c4nc5c(N6CCCCC6)cncc5[nH]4)c3n2)c1	–	–	69.8%
104 nM	11 nM	370 nM	100 nM	–	FC1(F)CCN(Cc2cncc(-c3ccc4[nH]nc(-c5cc6cccnc6[nH]5)c4n3)c2)C1	–	134%	–
> 10000 nM	42 nM	> 10000 nM	–	–	Nc1cncc(-c2cc3c(-c4cc5c(-c6ccccc6F)ccnc5[nH]4)n[nH]c3cn2)c1	32.4%	–	–
> 10000 nM	> 10000 nM	> 10000 nM	–	–	COc1cccc(-c2cncc3[nH]c(-c4n[nH]c5ccc(-c6cn[nH]c6)nc45)nc23)c1	–	–	–
> 10000 nM	> 10000 nM	> 10000 nM	–	123 nM	COc1cncc(-c2ccc3[nH]nc(-c4nc5c(N6CCCCC6)ccnc5[nH]4)c3n2)c1	–	–	–
45 nM	3 nM	–	300 nM	–	FC1(F)CCN(Cc2cncc(-c3ccc4[nH]nc(-c5cc6cnccc6[nH]5)c4n3)c2)C1	–	–	134%
> 10000 nM	8 nM	–	10 nM	–	Nc1cncc(-c2ccc3[nH]nc(-c4nc5c(-c6ccccc6F)nccc5[nH]4)c3n2)c1	–	–	108%
5.7 nM	73 nM	–	100 nM	–	O=C(Nc1cncc(-c2ccc3[nH]nc(-c4nc5c(-c6ccc(F)cc6)cncc5[nH]4)c3c2)c1)C1CCC1	–	–	203%
35.4 nM	11 nM	–	300 nM	–	O=C(Nc1cncc(-c2cnc3[nH]nc(-c4nc5c(-c6cccnc6)cncc5[nH]4)c3c2)c1)C1CCC1	–	–	130%
> 10000 nM	> 10000 nM	> 10000 nM	–	3000 nM	COc1cccc(-c2cncc3[nH]c(-c4n[nH]c5ccc(-c6cncc(NC(=O)C7CCCCC7)c6)nc45)nc23)c1	–	–	–
146 nM	2 nM	–	100 nM	–	Nc1cncc(-c2ccc3[nH]nc(-c4cc5c(-c6cccnc6)nccc5[nH]4)c3c2)c1	–	–	178%
> 10000 nM	30 nM	–	30 nM	–	COc1cccc(-c2cncc3[nH]c(-c4n[nH]c5ccc(-c6cccnc6)nc45)nc23)c1	–	–	59.2%
21 nM	3 nM	–	100 nM	–	CC(C)(C)CC(=O)Nc1cncc(-c2ccc3[nH]nc(-c4nc5ccncc5[nH]4)c3c2)c1	–	–	152%
> 10000 nM	> 10000 nM	> 10000 nM	–	–	O=C(Cc1ccccc1)Nc1cncc(-c2ccc3[nH]nc(-c4nc5c(-c6ccncc6)ccnc5[nH]4)c3n2)c1	–	–	–
